Activity calls are given as the source filed them.
Assays:
cells = format: functional
Cytochrome P450 2D6 = Cytochrome P450 2D6 (Homo sapiens, UniProt P10635);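 further: CYP2D6 member of a cytochrome P450 panel assay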
Cytochrome P450 3A4 = Cytochrome P450 3A4 (Homo sapiens, UniProt P08684);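 further: CYP3A4 tested as one member of a cytochrome P450 panel screen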
Cytochrome P450 1A2 = target: T1, Cytochrome P450 1A2 (Homo sapiens, UniProt P05177);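 further: PubChem cytochrome P450 panel assay, CYP1A2 panel member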
T1 sequence (P05177 whole entry): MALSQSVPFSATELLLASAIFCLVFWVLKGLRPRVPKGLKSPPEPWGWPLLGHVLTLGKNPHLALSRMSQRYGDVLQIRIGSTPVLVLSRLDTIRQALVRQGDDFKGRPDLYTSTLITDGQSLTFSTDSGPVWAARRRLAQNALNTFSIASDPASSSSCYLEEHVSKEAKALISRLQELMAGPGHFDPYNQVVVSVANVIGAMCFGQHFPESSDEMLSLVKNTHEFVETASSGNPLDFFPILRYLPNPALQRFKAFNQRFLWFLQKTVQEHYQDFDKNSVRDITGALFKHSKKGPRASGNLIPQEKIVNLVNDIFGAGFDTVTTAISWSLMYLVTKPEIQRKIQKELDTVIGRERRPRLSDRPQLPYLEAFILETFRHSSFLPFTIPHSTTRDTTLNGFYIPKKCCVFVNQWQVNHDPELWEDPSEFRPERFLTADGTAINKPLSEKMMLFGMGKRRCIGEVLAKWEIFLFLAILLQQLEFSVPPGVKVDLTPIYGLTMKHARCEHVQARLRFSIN

Cytochrome P450 2C9 = Cytochrome P450 2C9 (Homo sapiens, UniProt P11712)
[1] = target: Luciferin 4-monooxygenase (Photinus pyralis, UniProt P08659); experiment: firefly luciferase enzyme inhibitors, dose response, biochemical, luminescence (AID 1891)
[2] = Luminescence Cell-Based Dose Confirmation HTS to Identify Inhibitors of Platelet Dense Granule Release. [Related pubchem assays: 1663 (Primary HTS), 1678 (Summary of Project)]; format: functional
[3] = target: T2, Corticotropin-releasing factor receptor 2/Corticotropin-releasing factor-binding protein (Homo sapiens, UniProt P24387+Q13324); experiment: activators of CRF receptor 2 with binding protein – uHTS hits, confirmation (AID 602473); format: functional; conditions: read-out: EC50_Mean
T2 sequence (Q13324 whole entry): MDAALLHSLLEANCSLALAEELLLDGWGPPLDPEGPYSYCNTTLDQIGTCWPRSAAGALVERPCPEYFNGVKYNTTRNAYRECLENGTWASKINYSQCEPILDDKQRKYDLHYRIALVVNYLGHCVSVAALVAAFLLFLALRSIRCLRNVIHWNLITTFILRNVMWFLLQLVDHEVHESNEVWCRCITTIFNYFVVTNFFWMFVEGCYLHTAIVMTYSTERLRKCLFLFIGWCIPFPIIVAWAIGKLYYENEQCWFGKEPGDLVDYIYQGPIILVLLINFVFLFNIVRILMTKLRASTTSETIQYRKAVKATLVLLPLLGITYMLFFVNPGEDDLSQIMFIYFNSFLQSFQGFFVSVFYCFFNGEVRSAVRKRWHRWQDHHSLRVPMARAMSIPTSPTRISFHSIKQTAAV
T2 sequence (P24387 whole entry): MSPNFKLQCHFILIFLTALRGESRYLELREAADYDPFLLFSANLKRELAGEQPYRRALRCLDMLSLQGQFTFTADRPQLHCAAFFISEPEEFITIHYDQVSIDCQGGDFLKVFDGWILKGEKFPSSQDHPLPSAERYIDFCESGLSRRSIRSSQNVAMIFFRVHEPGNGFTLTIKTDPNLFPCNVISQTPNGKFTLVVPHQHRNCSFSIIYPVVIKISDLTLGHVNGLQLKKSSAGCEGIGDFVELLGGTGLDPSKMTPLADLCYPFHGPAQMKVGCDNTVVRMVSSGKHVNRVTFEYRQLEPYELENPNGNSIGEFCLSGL

[4] = Shn3 3'UTR reporter inhibitors, dose response, cell-based, Clone20 osteoblasts, firefly luciferase, cherry-picked (AID 624132); format: functional;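 further: firefly luciferase luminescence from reporter carrying the Shn3 3'UTR in osteoblasts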
[5] = control 3'UTR Renilla luciferase suppression, dose response, counter-screen for Shn3 inhibitor project, cell-based, Clone20-Shn3RL, cherry-picked (AID 624133); format: functional
[6] = tested on: Streptococcus sp. 'group A'; experiment: growth inhibition of control SK(-) GAS strain, dose response, counter-screen for streptokinase expression inhibitor project, luminescence, kanamycin, BacTiterGlo, confirmation (AID 1900); format: functional, organism-based
Streptococcus = experiment: Group A Streptococcus viability loss, dose response, counter-screen for streptokinase expression inhibitor project, luminescence, BacTiterGlo (AID 1915); format: functional, organism-based;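 further: potency for reduction of bacterial viability or growth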
Streptokinase A = target: T3, Streptokinase A (Streptococcus pyogenes serotype M1, UniProt P10520); experiment: S. pyogenes streptokinase expression inhibitors, potency, dose response, plasminogen activation absorbance, OD405 (AID 1914); format: functional, Streptococcus pyogenes M1 GAS;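 further: secreted streptokinase activity via plasminogen activation per viability signal from cell pellet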
T3 sequence (P10520 whole entry): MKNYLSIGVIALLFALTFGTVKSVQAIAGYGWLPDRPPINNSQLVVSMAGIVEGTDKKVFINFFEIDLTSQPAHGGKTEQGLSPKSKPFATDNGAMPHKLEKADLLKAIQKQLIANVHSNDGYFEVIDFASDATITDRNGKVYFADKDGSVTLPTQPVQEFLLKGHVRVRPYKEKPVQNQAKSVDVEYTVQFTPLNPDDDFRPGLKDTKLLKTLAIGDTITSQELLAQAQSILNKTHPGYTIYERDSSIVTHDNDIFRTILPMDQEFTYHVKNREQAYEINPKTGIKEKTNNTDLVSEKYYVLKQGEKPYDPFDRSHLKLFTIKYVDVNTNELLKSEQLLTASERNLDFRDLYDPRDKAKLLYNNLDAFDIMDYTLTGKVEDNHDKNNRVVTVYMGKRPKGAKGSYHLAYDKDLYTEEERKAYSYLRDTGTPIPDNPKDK

[7] = growth suppression of PTEN-null colon cells, dose response, cell-based, HCT116 PTEN knockout (AID 1047); format: functional;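 further: HCT116 colon tumor cells with PTEN knocked out; cells exposed to compound for 60 hours before readout; potency for loss of cell viability measured by luminescence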
[8] = growth suppression of beta-catenin-knockout colon cells, dose response, cell-based, HCT116, human colon tumor (AID 1045); format: functional;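 further: HCT116 colon tumor cells with beta catenin knocked out; cells exposed to compound for 60 hours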
[9] = C. albicans growth with fluconazole, confirmation, fluorescence, retest (AID 2467); format: functional, cell-based
[10] = NIH-3T3 fibroblast cytotoxicity, dose response, cytotoxicity control, cell-based, fluorescence, Alamar Blue, secondary assay (AID 2327); format: functional;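 further: NIH-3T3 mouse fibroblasts cultured with fluconazole at 8 µg/mL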
[11] = target: T4, Calpain-2 catalytic subunit (Sus scrofa, UniProt P43367); experiment: pig calpain II inhibitor potency, dose response, biochemical, fluorogenic peptide substrate (AID 1420); format: functional
T4 sequence (P43367 whole entry): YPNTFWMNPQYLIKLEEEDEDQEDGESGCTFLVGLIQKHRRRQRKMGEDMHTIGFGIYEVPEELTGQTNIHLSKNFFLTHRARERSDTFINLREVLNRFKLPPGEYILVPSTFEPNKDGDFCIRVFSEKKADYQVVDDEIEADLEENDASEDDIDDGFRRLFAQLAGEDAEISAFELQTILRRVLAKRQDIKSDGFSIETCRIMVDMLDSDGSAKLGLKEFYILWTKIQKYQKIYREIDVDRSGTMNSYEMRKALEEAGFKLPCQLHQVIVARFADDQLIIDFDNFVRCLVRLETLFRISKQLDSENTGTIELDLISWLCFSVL

Sequence of Cytochrome P450 2D6 (P10635 whole entry): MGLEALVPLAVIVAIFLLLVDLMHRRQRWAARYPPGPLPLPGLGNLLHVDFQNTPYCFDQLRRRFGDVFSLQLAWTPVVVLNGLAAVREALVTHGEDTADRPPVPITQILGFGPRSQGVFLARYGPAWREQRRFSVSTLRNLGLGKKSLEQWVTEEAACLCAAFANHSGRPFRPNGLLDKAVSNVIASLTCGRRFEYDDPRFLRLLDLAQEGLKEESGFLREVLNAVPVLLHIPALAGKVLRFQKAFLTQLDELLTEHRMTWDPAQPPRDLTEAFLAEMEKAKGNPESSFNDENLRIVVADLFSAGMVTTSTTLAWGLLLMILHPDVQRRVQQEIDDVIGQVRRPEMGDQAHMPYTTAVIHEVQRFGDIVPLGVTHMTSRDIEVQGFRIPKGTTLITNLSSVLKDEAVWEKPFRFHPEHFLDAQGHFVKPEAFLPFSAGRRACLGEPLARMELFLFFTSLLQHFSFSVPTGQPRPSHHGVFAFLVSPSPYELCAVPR
Sequence of Cytochrome P450 2C9 (P11712 whole entry): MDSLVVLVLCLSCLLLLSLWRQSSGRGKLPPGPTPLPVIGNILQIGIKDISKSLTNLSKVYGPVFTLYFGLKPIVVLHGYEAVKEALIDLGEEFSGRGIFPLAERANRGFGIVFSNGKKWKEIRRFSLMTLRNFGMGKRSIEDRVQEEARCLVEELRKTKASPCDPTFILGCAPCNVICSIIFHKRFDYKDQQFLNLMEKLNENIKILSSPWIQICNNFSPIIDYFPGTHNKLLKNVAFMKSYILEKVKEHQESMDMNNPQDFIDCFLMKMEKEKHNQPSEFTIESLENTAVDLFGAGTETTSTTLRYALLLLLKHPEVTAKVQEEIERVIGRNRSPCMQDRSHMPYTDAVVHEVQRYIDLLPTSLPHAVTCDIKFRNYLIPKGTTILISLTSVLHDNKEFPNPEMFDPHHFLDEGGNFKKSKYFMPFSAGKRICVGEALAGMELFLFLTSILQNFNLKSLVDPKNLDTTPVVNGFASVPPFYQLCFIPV
Sequence of Luciferin 4-monooxygenase (P08659 whole entry): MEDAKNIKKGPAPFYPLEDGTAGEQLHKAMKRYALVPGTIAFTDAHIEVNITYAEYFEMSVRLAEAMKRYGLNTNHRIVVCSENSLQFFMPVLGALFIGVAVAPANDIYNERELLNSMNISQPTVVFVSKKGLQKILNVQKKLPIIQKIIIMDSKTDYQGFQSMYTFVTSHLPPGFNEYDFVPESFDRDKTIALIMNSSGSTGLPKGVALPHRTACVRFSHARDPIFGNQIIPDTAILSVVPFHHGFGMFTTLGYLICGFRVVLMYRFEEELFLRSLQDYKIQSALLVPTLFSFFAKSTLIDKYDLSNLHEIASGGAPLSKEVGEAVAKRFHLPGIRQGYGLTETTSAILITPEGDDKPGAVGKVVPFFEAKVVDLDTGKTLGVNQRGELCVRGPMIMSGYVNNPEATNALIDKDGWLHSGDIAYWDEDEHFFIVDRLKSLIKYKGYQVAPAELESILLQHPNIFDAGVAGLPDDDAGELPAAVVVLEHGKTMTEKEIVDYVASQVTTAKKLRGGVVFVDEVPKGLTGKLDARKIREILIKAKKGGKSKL
Sequence of Cytochrome P450 3A4 (P08684 whole entry): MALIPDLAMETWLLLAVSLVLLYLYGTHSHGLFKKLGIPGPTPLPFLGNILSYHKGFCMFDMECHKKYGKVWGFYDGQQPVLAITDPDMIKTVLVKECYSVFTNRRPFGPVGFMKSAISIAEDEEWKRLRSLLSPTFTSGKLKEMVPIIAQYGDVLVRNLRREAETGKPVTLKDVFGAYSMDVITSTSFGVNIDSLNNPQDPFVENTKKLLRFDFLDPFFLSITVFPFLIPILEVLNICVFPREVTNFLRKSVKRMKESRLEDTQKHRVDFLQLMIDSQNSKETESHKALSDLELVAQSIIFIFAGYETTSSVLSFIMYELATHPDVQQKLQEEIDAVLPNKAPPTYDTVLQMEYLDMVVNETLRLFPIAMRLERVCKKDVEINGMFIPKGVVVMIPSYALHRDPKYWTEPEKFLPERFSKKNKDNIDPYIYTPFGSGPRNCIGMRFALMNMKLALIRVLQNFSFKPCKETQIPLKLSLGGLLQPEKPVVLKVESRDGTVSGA

COc1cc2c(cc1OC)CN(CCC(=O)c1ccc(Br)cc1)CC2
IC50 (cells): 16.5 µM (active)

COc1ccc(C(=O)N2CCC3(CCCN(c4ncccn4)C3)CC2)cc1
AC50 (Cytochrome P450 2D6): 31.6 µM (inconclusive) | AC50 (Cytochrome P450 3A4): 39.8 µM (inconclusive) | AC50 (Cytochrome P450 1A2): 20 µM (inconclusive)

CC1(C)CO[C@H](CC(=O)O)CN1
AC50 (Cytochrome P450 2C9): 39.8 µM (inconclusive) | AC50 (Cytochrome P450 1A2): 31.6 µM (inconclusive)

COc1ccc(CC(=O)Nc2ccc(-c3cn4ccccc4n3)cc2)cc1OC
EC50 [1]: > 112 µM (not active) | EC50 [2]: > 112 µM (not active)

CC(C)N1CCC(=NNC(=O)c2ccc(Br)o2)CC1
AC50 (Cytochrome P450 2D6): 10 µM (inconclusive) | AC50 (Cytochrome P450 1A2): 17.8 µM (inconclusive)

Cc1cccc(Cc2cnc(NC(=O)C3=NCCN3)s2)c1
IC50 (cells): 4.6 µM (active)

CCOC(=O)COc1ccc2c(=O)c(-c3ccccc3)coc2c1
IC50 (cells): < 0.1 µM (active)

O=c1c(-c2ccccc2)nc2cnc(N3CCOCC3)nc2n1Cc1cccs1
AC50 (Cytochrome P450 2C9): 20 µM (inconclusive) | AC50 (Cytochrome P450 1A2): 2.51 µM (inconclusive)

COc1cccc(C2C3=C(CC(C)(C)CC3=O)OC(N)=C2[N+](=O)[O-])c1 (stereo not drawn)
AC50 (Cytochrome P450 3A4): 15.8 µM (inconclusive) | AC50 (Cytochrome P450 2C9): 12.6 µM (inconclusive)

COc1cc(OC)cc(C(=O)N/N=C/c2ccc(OC)c(COc3ccc(F)cc3)c2)c1
EC50 [3]: > 53 µM (inactive)

Cc1ccc(CNC(=O)c2cc(-c3ccccc3C)nn2CC2CC(c3cccnc3)=NO2)cc1 (stereo not drawn)
AC50 [4]: > 70 µM (inactive) | AC50 [5]: 29 µM (active)

CC(C)OC(=O)c1c(NS(=O)(=O)c2ccccc2)sc2c1CCCC2
EC50 [6]: 3.69 µM (active) | EC50 [3]: 14 µM (active) | EC50 (Streptococcus): 7.93 µM (active) | EC50 (Streptokinase A): > 150 µM (not active)

O=C(Nc1cccc(Br)c1)/C(=C\c1cccnc1)NC(=O)c1ccco1
AC50 (Cytochrome P450 2C9): 39.8 µM (inconclusive) | AC50 (Cytochrome P450 1A2): 31.6 µM (inconclusive)

Cc1cc(-n2ccc(=O)[nH]c2=O)nc(-c2ccccc2)n1
EC50 [1]: > 112 µM (not active) | EC50 [2]: 15.4 µM (active)

Cc1cc(C)c(C)c(OCC(O)CN2CCN(c3ccccn3)CC2)c1 (stereo not drawn)
EC50 [1]: > 112 µM (not active) | EC50 [2]: > 112 µM (not active)

Cc1cccc(Oc2ccc(NC(=O)c3ccccc3C(=O)O)cc2)c1C
EC50 [3]: 8.97 µM (active)

CC(C)Oc1cccnc1N(C)C1CCN(Cc2ccccc2)CC1
AC50 (Cytochrome P450 3A4): 15.8 µM (inconclusive)

Cc1cccc(NC(=O)CNC(=O)COC(=O)CCS(=O)(=O)c2ccccc2)c1C
EC50 [1]: > 112 µM (not active) | EC50 [2]: > 112 µM (not active)

N#CCCn1c(=O)c(-c2ccc(Cl)cc2)nc2cnc(N3CCNCC3)nc21
AC50 (Cytochrome P450 3A4): 25.1 µM (inconclusive)

O=C(Nc1cccc(C(F)(F)F)c1)N(Cc1ccc(Cl)cc1)CC(O)C(F)(F)F (stereo not drawn)
EC50 [7]: 19.6 µM (active) | EC50 [8]: 23.8 µM (active) | AC50 (Cytochrome P450 3A4): 22.4 µM (inconclusive)

O=C(NCC1(N2CCCCC2)CCCCC1)c1ccc(NS(=O)(=O)c2ccc(F)cc2)cc1
EC50 [1]: > 112 µM (not active) | EC50 [2]: > 112 µM (not active)

CC(C)NC(=S)NC(=O)c1ccc(-c2ccccc2)cc1
EC50 [3]: > 53 µM (inactive)

O=C(SCc1cccc2ccccc12)c1ccc(Cl)cc1
AC50 (Cytochrome P450 1A2): 0.794 µM (inconclusive)

Cc1nc2ncnn2c(C)c1CCC(=O)NCCC1=CCCCC1
AC50 (Cytochrome P450 3A4): 15.8 µM (inconclusive) | AC50 (Cytochrome P450 2C9): 14.1 µM (inconclusive)

O=C(CSc1nnc(SCc2ccc(F)cc2)s1)Nc1ccc(C(=O)O)cc1
EC50 [1]: > 112 µM (not active) | EC50 [2]: 39.4 µM (active)

O=C(CN1CCN(c2ccccc2)CC1)N1N=CCC1c1ccccc1 (stereo not drawn)
EC50 [1]: > 112 µM (not active) | EC50 [2]: > 112 µM (not active)

Cn1c(=O)c2[nH]c(SCCN3CCOCC3)nc2n(C)c1=S
AC50 (Cytochrome P450 3A4): 3.16 µM (inconclusive) | AC50 (Cytochrome P450 2C9): 6.31 µM (inconclusive) | AC50 (Cytochrome P450 1A2): 0.631 µM (inconclusive)

O=C(NCc1ccc(Cl)cc1)c1n[nH]c([N+](=O)[O-])c1Cl
EC50 [9]: 0.123 µM (active) | EC50 [10]: > 160 µM (inactive)

COc1ccc(OC)c(NC(=O)CC(Cc2ccccc2OC)C(=O)O)c1 (stereo not drawn)
AC50 (Cytochrome P450 1A2): 0.0316 µM (inconclusive)

COc1ccc(-c2nnc(-c3ccccc3)o2)cc1OC
EC50 [1]: > 112 µM (not active) | EC50 [2]: 72.5 µM (active)

N[C@H](C(=O)O)c1cccc(O)c1
AC50 (Cytochrome P450 1A2): 39.8 µM (inconclusive)

CN(C)c1ccc(/C=N/NC(=O)c2ccnn2C)cc1
EC50 [1]: 6.24 µM (active) | EC50 [2]: 1.32 µM (active)

O=c1c(-c2ccc(F)cc2)nc2cnc(N3CCOCC3)nc2n1Cc1ccc(F)cc1
AC50 (Cytochrome P450 2D6): 39.8 µM (inconclusive) | AC50 (Cytochrome P450 1A2): 20 µM (inconclusive)

Cc1noc(NS(=O)(=O)c2ccc(NC(=O)c3ccc(Br)o3)cc2)c1C
AC50 (Cytochrome P450 3A4): 39.8 µM (inconclusive) | AC50 (Cytochrome P450 2C9): 14.1 µM (inconclusive)

COc1ccccc1CNCc1cccs1
AC50 (Cytochrome P450 3A4): 17.8 µM (inconclusive)

COc1ccc(Oc2nc(C)cc(C)c2S(=O)(=O)c2ccc(C)cc2)cc1
AC50 (Cytochrome P450 3A4): 1.12 µM (inconclusive)

NS(=O)(=O)c1ccc(/N=N\c2nc3c(O)nc(O)nc3[nH]2)cc1
AC50 (Cytochrome P450 3A4): 0.631 µM (inconclusive)

O=[N+]([O-])c1cc(C(F)(F)F)ccc1NCCNC(=S)Nc1ccc(Cl)cc1
IC50 [11]: 7.92 µM (not active) | EC50 (Streptokinase A): > 150 µM (not active)

O=C(Nc1ccccc1)N1CC[C@@]2(CCCN(C(=O)c3cccc(F)c3)C2)C1
AC50 (Cytochrome P450 3A4): 25.1 µM (inconclusive)

CC1(C)S[C@@H]2[C@H](C(=O)O)N=C(Cc3ccccc3)N2[C@H]1C(=O)O
AC50 (Cytochrome P450 1A2): 6.31 µM (inconclusive)

COc1ccc2cc(C(=O)C3CCCN(Cc4ccccn4)C3)ccc2c1 (stereo not drawn)
IC50 (cells): 5.03 µM (active)

Cc1c(OCC(=O)N2CCN(c3ccccc3)CC2)ccc2c3c(c(=O)oc12)CCCC3
EC50 [1]: > 112 µM (not active) | EC50 [2]: > 112 µM (not active)

COCc1c(C(N)=O)nnn1-c1nonc1N
AC50 (Cytochrome P450 1A2): 25.1 µM (inconclusive)
